Key:
Assay type in all cases: cell-based
RKO = experiment: Proliferation inhibition test, non-Wnt mutant control cell line RKO; conditions: Homo sapiens; RKO (Wnt pathway not activated, control), 96 h culture, maximum concentration 10 uM; read-out: Antiproliferation IC50 RKO
Source text: (§1) The cell lines used in the experiment are Colo205, H929, HepG2, and DU4475, which have sustained activation of the Wnt pathway and whose proliferation is Wnt pathway-dependent. On the other hand, RKO cell line, in which normally the Wnt pathway is not activated and whose proliferation is not Wnt pathway-dependent, was used as a control cell line. This was done to determine whether the inhibitory effect of the compound of the present disclosure on Wnt-dependent proliferation is due to other nonspecific toxicity.
(§2) Colo205, H929, DU4475, HepG2 and RKO cell lines cultured in their respective culture media were treated in the logarithmic growth phase, and the cells were collected and prepared into a uniform cell suspension of known concentration, and then added to a 96-well cell culture plate so that each well contained 1000-4000 cells. Place in a 5% CO2 cell culture incubator and culture at 37° C. for 20-24 h. On the second day, add the completely dissolved, 3-fold gradient dilution compound to each cell culture well to make the final maximum concentration in the cell culture well 10 uM, and continue to culture for 96 h. This test uses Promega's cell activity detection test for detection. The more the cells proliferate, the stronger the final signal intensity. The detection instrument is SpectraMax, full wavelength mode. The wells with only DMSO added were used as positive control wells, and the wells without cells inoculated were used as negative control wells.

HepG2 = experiment: Proliferation inhibition test, Wnt mutant cell line HepG2; conditions: Homo sapiens, HepG2, 96 h, HepG2, 96 h culture with compound; read-out: Antiproliferation IC50 HepG2
Source text: as §1, §2

[1] = test system: Colo205-LUC-TCF/LEF reporter gene; experiment: Colo205-LUC-TCF/LEF M1 reporter cell line luciferase inhibition; conditions: 4 h, 4 hours incubation, firefly luciferase signal
Experimental: Colo205 cell line (Cell Bank of Chinese Academy of Sciences, Cat #TCHul02) was purchased from the Cell Bank of Chinese Academy of Sciences. After expansion and subculture, during the exponential growth phase, luciferase reporter plasmid (Promega) driven by TCF/LEF transcription factor was transfected by lipo3000 liposome transfection. The plasmid carries a resistance gene for resistance screening. Transfection was carried out in 10 cm culture dishes using conventional complete medium without resistance. After 2 days, the medium with resistance was replaced, and the culture was continued. After that, the medium with resistance was replaced every 2 days, and the suspended cells were discarded. The original medium was centrifuged to remove cells and debris and retained as an adaptive medium. When the cells covered the culture dish, the cells were digested, counted, and passaged in a 96-well plate, so that the average number of cells contained in each well was 1.5/well, and the adaptive medium was used for passage. The rest of the cells were frozen. After passage, culture for 4 hours to allow the cells to adhere to the wall, and then observe the number of cells in each well under a microscope. Wells with only 1 cell per well were labeled as monoclonal wells. Afterwards, normal culture was performed, and the culture medium was replaced every 2 days, and observed. There are wells where the monoclonal cells continue to grow in the early stage, and they are labeled twice, and can be replaced with normal medium with resistance. When a monoclonal well was overgrown with a 96-well plate, it is digested and passaged to a 24-well culture plate. After the 24-well plate is overgrown, it is passaged to a 96-well plate and a 6-well plate. The cells in a 96-well plate are at least 6 wells, of which 3 wells were added with known Wnt inhibitors, and the other 3 wells were not treated. After 24 hours, the cells in the 96-well plate were added with a fluorescence detection reagent to detect the fluorescence intensity. Cell lines with fluorescent expression when not treated and decreased fluorescent light after inhibition were selected and further cultured. The Colo205-LUC-TCF/LEF-M1 cell line is one of the cell lines screened above. Its growth curve, cell shape, and cell growth state are similar to those of the original Colo205 cells, and the ratio of the fluorescent signals of the inhibitor-treated and untreated cells is the largest among all cell lines, and the ratio can reach 4-5 times when inhibited at 4 hours, which was completely suitable for the screening of Wnt inhibitors in the later stage.
The Colo205-LUC-TCF/LEF M1 cell line is a reporter tool cell stably transfected with the pGL4.49-LUC2-TCF/LEF vector. The β-catenin Wnt pathway is continuously activated. After adding the inhibitor, the Wnt pathway is inhibited. The expression of firefly luciferase regulated by the TCF/LEF cis-element decreased, and after adding the detection substrate, the detected light signal decreased accordingly, so as to detect the inhibitory effect of the compound.
To a 96-well cell culture plate, add 100 uL of the compound with a maximum concentration of 20 uM to each well, and make a 3-fold serial dilution of the compound concentration. Then 10,000 colo205 cells stably transfected with the reporter gene and 100 uL medium were inoculated into each well, and corresponding positive and negative control wells were made at the same time. Put the cells in a 5% CO2 incubator and incubate at 37° C. for 4 hours. After 4 hours, remove the culture medium, add 100 μL of reagent (Promega) containing the corresponding firefly luciferase substrate to each well, and measure the activity of luciferase reporter gene. Luminescence intensity was read with SpectraMax in full wavelength mode. […]

Colo205 = experiment: Proliferation inhibition test, Wnt mutant cell line Colo205; conditions: Homo sapiens, COLO 205, 96 h, Colo205, 96 h culture with compound; read-out: Antiproliferation IC50 Colo205
Source text: as §1, §2

DU4475 = experiment: Proliferation inhibition test, Wnt mutant cell line DU4475; conditions: Homo sapiens, DU-4475, 96 h, DU4475, 96 h culture with compound; read-out: Antiproliferation IC50 DU4475
Source text: as §1, §2

H929 = experiment: Proliferation inhibition test, Wnt mutant cell line H929; conditions: Homo sapiens, NCI-H929, 96 h, H929, 96 h culture with compound; read-out: Antiproliferation IC50 H929
Source text: as §1, §2

IC50 (HepG2): 61.3 nM
IC50 [1]: 27.4 nM
IC50 (Colo205): 25.7 nM
IC50 (H929): 126 nM
SMILES: Cc1nc(C(F)(F)F)ncc1Oc1ncc(CNc2nc3c4c(n2)N(C)[C@@](C)(CO)C(=O)N4CCC3)cc1F [Compound 28]
IC50 (RKO): > 10000 nM
IC50 (DU4475): 16.8 nM

Reference: patent US20250163062A1, “WNT PATHWAY INHIBITOR COMPOUNDS” (ADLAI NORTYE BIOPHARMA CO., LTD., priority 2022, published 2025)
